Laboratory results taken from patent US11866450B2, “Modulators of Cystic Fibrosis Transmembrane Conductance regulator, pharmaceutical compositions, methods of treatment, and process for making the modulators” (priority 2018, dated 2024).
pEC50: −log10 of the molar value. Read-outs that look alike come from different tables or passages of the source.

Tests used:
[1] = molecular target: CFTR-mediated chloride transport (Homo sapiens, UniProt P13569); type: cell-based; conditions: enteroid cells incubated with test compound 18-24 hours, acute 10 μM forskolin and 300 nM Compound III; for Max. Activity: % of chloride transport with 3 μM Compound A, 3 μM Compound II and 300 nM acute Compound III triple combination control
Procedure, shortened: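 Membrane-potential fluorescence AUC over 15 min quantified CFTR chloride transport after acute forskolin (10 μM), IBMX (100 μM) and Compound III (300 nM) in chloride-free buffer. Human enteroid cells were pretreated with compound for 18–24 h; % Activity is relative to 3 μM Compound A + 3 μM Compound II + 300 nM Compound III.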

[2] = snar bond

CFTR-mediated chloride transport, sequence (P13569 whole entry, looked up): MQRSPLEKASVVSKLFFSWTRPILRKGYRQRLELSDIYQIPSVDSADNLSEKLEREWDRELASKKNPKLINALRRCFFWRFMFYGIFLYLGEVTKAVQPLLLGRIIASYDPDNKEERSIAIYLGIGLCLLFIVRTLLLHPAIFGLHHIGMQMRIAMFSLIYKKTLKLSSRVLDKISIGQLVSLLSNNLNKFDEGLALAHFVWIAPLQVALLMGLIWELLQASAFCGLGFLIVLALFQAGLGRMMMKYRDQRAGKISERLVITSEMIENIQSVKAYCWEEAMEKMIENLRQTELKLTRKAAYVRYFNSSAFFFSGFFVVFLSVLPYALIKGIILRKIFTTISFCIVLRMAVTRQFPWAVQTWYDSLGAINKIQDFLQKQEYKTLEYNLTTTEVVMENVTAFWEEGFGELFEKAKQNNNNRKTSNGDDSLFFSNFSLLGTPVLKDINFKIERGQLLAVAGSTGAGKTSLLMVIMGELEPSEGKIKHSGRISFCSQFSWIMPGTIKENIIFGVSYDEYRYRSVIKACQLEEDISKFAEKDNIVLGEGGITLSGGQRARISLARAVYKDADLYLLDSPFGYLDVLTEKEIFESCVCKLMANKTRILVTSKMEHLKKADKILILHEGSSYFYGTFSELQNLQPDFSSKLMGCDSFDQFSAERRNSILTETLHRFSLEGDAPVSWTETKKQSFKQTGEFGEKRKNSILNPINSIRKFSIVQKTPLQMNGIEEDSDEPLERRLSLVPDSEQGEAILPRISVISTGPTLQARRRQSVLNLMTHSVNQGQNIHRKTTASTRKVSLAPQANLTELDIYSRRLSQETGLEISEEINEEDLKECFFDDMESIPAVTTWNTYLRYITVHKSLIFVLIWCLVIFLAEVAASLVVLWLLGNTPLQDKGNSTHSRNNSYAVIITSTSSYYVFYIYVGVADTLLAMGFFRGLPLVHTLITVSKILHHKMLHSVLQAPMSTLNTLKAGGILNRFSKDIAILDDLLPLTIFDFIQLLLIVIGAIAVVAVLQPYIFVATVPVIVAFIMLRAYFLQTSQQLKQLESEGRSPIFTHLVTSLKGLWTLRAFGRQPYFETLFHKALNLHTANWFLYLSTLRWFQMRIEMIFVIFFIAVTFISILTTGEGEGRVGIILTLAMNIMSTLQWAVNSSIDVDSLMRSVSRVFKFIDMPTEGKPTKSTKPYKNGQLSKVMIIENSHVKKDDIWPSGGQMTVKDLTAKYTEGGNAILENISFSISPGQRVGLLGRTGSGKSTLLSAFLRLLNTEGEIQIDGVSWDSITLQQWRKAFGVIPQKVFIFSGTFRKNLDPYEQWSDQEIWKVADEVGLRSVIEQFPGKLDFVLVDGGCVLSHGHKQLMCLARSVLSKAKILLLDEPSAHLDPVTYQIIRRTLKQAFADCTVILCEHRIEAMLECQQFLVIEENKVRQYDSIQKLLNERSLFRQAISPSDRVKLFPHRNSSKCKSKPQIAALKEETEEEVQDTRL

With `CC1(C)CC2CCCCCc3ccc(nc3)S(=O)(=O)NC(=O)c3ccc(-n4ccc(OCCC5(C(F)(F)F)CC5)n4)nc3N1C2` (stereo not drawn) [Compound 143, 12,12-dimethyl-8-(3-{2-[1-(trifluoromethyl)cyclopropyl]ethoxy}-1H-pyrazol-1-yl)-2λ^6-thia-3,9,11,22-tetraazatetracyclo[18.2.2.111,14.05,10]pentacosa-1(23),5,7,9,20(24),21-hexaene-2,2,4-trione] the pEC50 [1] was 5.52 to 6.00, the “Max. Activity” value [1] was “+ (+ is <30%)” and the ring closure, isolated yield ([2]; from CC1(C)CC(CCCCCc2ccc(S(=O)(=O)NC(=O)c3ccc(-n4ccc(OCCC5(C(F)(F)F)CC5)n4)nc3Cl)nc2)CN1, 17-membered ring, K2CO3/CsF, DMSO, 45.1 mM, 165.0 °C, 17.0 h) was 11%.

For `Cc1cc2nn1CCCC1CN(c3nc(-n4ccc(OCCC5(C(F)(F)F)CC5)n4)ccc3C(=O)NS2(=O)=O)C(C)(C)C1` (stereo not drawn) [Compound 144, 13,20,20-Trimethyl-4-(3-{2-[1-(trifluoromethyl)cyclopropyl]ethoxy}-1H-pyrazol-1-yl)-10λ^6-thia-1,3,9,14,22-pentaazatetracyclo[16.2.1.111,14.02,7]docosa-2,4,6,11(22),12-pentaene-8,10,10-trione], the pEC50 [1] was over 6.00, the “Max. Activity” value [1] was “++ (++ is 30-60%)” and the ring closure, isolated yield ([2]; from Cc1cc(S(=O)(=O)NC(=O)c2ccc(-n3ccc(OCCC4(C(F)(F)F)CC4)n3)nc2Cl)nn1CCCC1CN(C(=O)OC(C)(C)C)C(C)(C)C1, 14-membered ring, K2CO3/CsF/3A MS, DMSO, 44.1 mM, 155.0 °C, 2 steps) was 38%.

For `CC1(C)C[C@@H]2CCCNc3cccc(n3)S(=O)(=O)NC(=O)c3ccc(-n4ccc(OCCCC5(C(F)(F)F)CC5)n4)nc3N1C2` [Compound 161, (14S)-12,12-dimethyl-8-(3-{3-[1-(trifluoromethyl)cyclopropyl]propoxy}-1H-pyrazol-1-yl)-2λ^6-thia-3,9,11,18,23-pentaazatetracyclo[17.3.1.111,14.05,10]tetracosa-1(22),5,7,9,19(23),20-hexaene-2,2,4-trione], the pEC50 [1] was over 6.00, the “Max. Activity” value [1] was “+++ (+++ is >60%)” and the ring closure, isolated yield ([2]; from 2-chloro-N-[[6-[3-[(3S)-5,5-dimethylpyrrolidin-3-yl]propylamino]-2-pyridyl]sulfonyl]-6-[3-[3-[1-(trifluoromethyl)cyclopropyl]propoxy]pyrazol-1-yl]pyridine-3-carboxamide (dihydrochloride salt), 15-membered ring, K2CO3/CsF, NMP, 83.9 mM, 150.0 °C) was 55%.

In the case of `CC1(C)CC2CCCn3ccc(n3)S(=O)(=O)NC(=O)c3ccc(-n4ccc(OCCC5C6(CC6)C56CC6)n4)nc3N1C2` (stereo not drawn) [Compound 176, 4-[3-(2-{dispiro[2.0.2.1]heptan-7-yl}ethoxy)-1H-pyrazol-1-yl]-20,20-dimethyl-10λ^6-thia-1,3,9,14,22-pentaazatetracyclo[16.2.1.111,14.02,7]docosa-2,4,6,11(22),12-pentaene-8,10,10-trione], the pEC50 [1] was over 6.00, the “Max. Activity” value [1] was “+++ (+++ is >60%)” and the ring closure, isolated yield ([2]; from CC1(C)CC(CCCn2ccc(S(=O)(=O)NC(=O)c3ccc(-n4ccc(OCCC5C6(CC6)C56CC6)n4)nc3Cl)n2)CN1, 14-membered ring, K2CO3/CsF/3A MS, DMSO, 53.1 mM, 155.0 °C) was 40%.

In the case of `CC1(C)C[C@@H]2CCCNc3cccc(n3)S(=O)(=O)NC(=O)c3ccc(-n4ccc(OCCC5C(C)(C)C5(C)C)n4)nc3N1C2` [Compound 185, (14S)-12,12-Dimethyl-8-{3-[2-(2,2,3,3-tetramethylcyclopropyl)ethoxy]-1H-pyrazol-1-yl}-2λ^6-thia-3,9,11,18,23-pentaazatetracyclo[17.3.1.111,14.05,10]tetracosa-1(23),5(10),6,8,19,21-hexaene-2,2,4-trione], the pEC50 [1] was over 6.00, the “Max. Activity” value [1] was “+++ (+++ is >60%)” and the ring closure, isolated yield ([2]; from CC(C)(C)OC(=O)N1C[C@@H](CCCNc2cccc(S(=O)(=O)NC(=O)c3ccc(-n4ccc(OCCC5C(C)(C)C5(C)C)n4)nc3Cl)n2)CC1(C)C, 15-membered ring, K2CO3/3A MS, DMSO, 37.9 mM, 160.0 °C, 2 steps) was 19%.

For `CC1(C)C[C@@H]2CCCn3ccc(n3)S(=O)(=O)NC(=O)c3ccc(-n4ccc(OCCC5C6(CC6)C56CC6)n4)nc3N1C2` [Compound 187, (18S)-4-[3-(2-{Dispiro[2.0.2.1]heptan-7-yl}ethoxy)-1H-pyrazol-1-yl]-20,20-dimethyl-10λ^6-thia-1,3,9,14,22-pentaazatetracyclo[16.2.1.111,14.02,7]docosa-2,4,6,11(22),12-pentaene-8,10,10-trione], the pEC50 [1] was over 6.00, the “Max. Activity” value [1] was “+++ (+++ is >60%)” and the ring closure, isolated yield ([2]; from CC1(C)C[C@H](CCCn2ccc(S(=O)(=O)NC(=O)c3ccc(-n4ccc(OCCC5C6(CC6)C56CC6)n4)nc3Cl)n2)CN1, 14-membered ring, K2CO3/CsF/3A MS, DMSO, 26.2 mM, 155.0 °C, 18.0 h) was 72%.

For `CC1(C)C[C@H]2CCCNc3cccc(n3)S(=O)(=O)NC(=O)c3ccc(-n4ccc(OCCC5C6(CC6)C56CC6)n4)nc3N1C2` [Compound 194, (14R)-8-[3-(2-{Dispiro[2.0.2.1]heptan-7-yl}ethoxy)-1H-pyrazol-1-yl]-12,12-dimethyl-2λ^6-thia-3,9,11,18,23-pentaazatetracyclo[17.3.1.111,14.05,10]tetracosa-1(22),5,7,9,19(23),20-hexaene-2,2,4-trione], the pEC50 [1] was over 6.00, the “Max. Activity” value [1] was “++ (++ is 30-60%)” and the ring closure, isolated yield ([2]; from CC1(C)C[C@@H](CCCNc2cccc(S(=O)(=O)NC(=O)c3ccc(-n4ccc(OCCC5C6(CC6)C56CC6)n4)nc3Cl)n2)CN1, 15-membered ring, K2CO3, NMP, 72.4 mM, 135.0 °C, 22.0 h) was 57%.

With `CC1(C)C[C@@H]2CCCNc3cccc(n3)S(=O)(=O)NC(=O)c3ccc(-n4ccc(OCCC5C6(CC6)C56CC6)n4)nc3N1C2` [Compound 195, (14S)-8-[3-(2-{Dispiro[2.0.2.1]heptan-7-yl}ethoxy)-1H-pyrazol-1-yl]-12,12-dimethyl-2λ^6-thia-3,9,11,18,23-pentaazatetracyclo[17.3.1.111,14.05,10]tetracosa-1(22),5,7,9,19(23),20-hexaene-2,2,4-trione] the pEC50 [1] was over 6.00, the “Max. Activity” value [1] was “+++ (+++ is >60%)” and the ring closure, isolated yield ([2]; from CC1(C)C[C@H](CCCNc2cccc(S(=O)(=O)NC(=O)c3ccc(-n4ccc(OCCC5C6(CC6)C56CC6)n4)nc3Cl)n2)CN1, 15-membered ring, K2CO3, NMP, 55.8 mM, 150.0 °C, 22.0 h) was 68%.

In the case of `CC1(C)C2CCNc3cccc(n3)S(=O)(=O)NC(=O)c3ccc(-n4ccc(OCCC5(C(F)(F)F)CC5)n4)nc3N1CC2` (stereo not drawn) [Compound 236, 23,23-Dimethyl-11-(3-{2-[1-(trifluoromethyl)cyclopropyl]ethoxy}-1H-pyrazol-1-yl)-17λ^6-thia-2,8,10,16,22-pentaazatetracyclo[16.3.1.15,8.09,14]tricosa-1(22),9,11,13,18,20-hexaene-15,17,17-trione], the pEC50 [1] was under 5.52, the “Max. Activity” value [1] was “+ (+ is <30%)” and the ring closure, isolated yield ([2]; from CC1(C)NCCC1CCNc1cccc(S(=O)(=O)NC(=O)c2ccc(-n3ccc(OCCC4(C(F)(F)F)CC4)n3)nc2Cl)n1, 14-membered ring, K2CO3/3A MS, DMSO, 25.1 mM, 180.0 °C, 18.0 h) was 2%.

With `[2H]C([2H])(COc1ccn(-c2ccc3c(n2)N2C[C@@H](CCCNc4cccc(n4)S(=O)(=O)NC3=O)CC2(C)C)n1)C1C2(CC2)C12CC2` [Compound 252, (14S)-8-[3-(2-{dispiro[2.0.2.1]heptan-7-yl}-2,2-dideuterio-ethoxy)-1H-pyrazol-1-yl]-12,12-dimethyl-2λ^6-thia-3,9,11,18,23-pentaazatetracyclo[17.3.1.111,14.05,10]tetracosa-1(22),5,7,9,19(23),20-hexaene-2,2,4-trione] the pEC50 [1] was over 6.00, the “Max. Activity” value [1] was “+++ (+++ is >60%)” and the ring closure, isolated yield ([2]; from 2-chloro-6-[3-(2,2-dideuterio-2-dispiro[2.0.2.1]heptan-7-yl-ethoxy)pyrazol-1-yl]-N-[[3-[(3S)-5,5-dimethylpyrrolidin-3-yl]propylamino]-2-pyridyl]sulfonyl]pyridine-3-carboxamide (trifluoroacetate salt), 15-membered ring, K2CO3, NMP, 21.6 mM, 150.0 °C) was 85%.

In the case of `CC1(C)C[C@@H]2CCCNc3cccc(n3)S(=O)(=O)NC(=O)c3ccc(-n4ccc(OCC(O)CC5(C(F)(F)F)CC5)n4)nc3N1C2` (stereo partly drawn) [Compound 259, (14S)-8-(3-{2-hydroxy-3-[1-(trifluoromethyl)cyclopropyl]propoxy}-1H-pyrazol-1-yl)-12,12-dimethyl-2λ^6-thia-3,9,11,18,23-pentaazatetracyclo[17.3.1.111,14.05,10]tetracosa-1(22),5(10),6,8,19(23),20-hexaene-2,2,4-trione], the pEC50 [1] was over 6.00, the “Max. Activity” value [1] was “+++ (+++ is >60%)” and the ring closure, isolated yield ([2]; from CC(C)(C)OC(=O)N1C[C@@H](CCCNc2cccc(S(=O)(=O)NC(=O)c3ccc(-n4ccc(OCC(O)CC5(C(F)(F)F)CC5)n4)nc3Cl)n2)CC1(C)C, 15-membered ring, HCl/dioxane/DCM, then K2CO3/3A MS, DMSO, 28.6 mM, 155.0 °C, 2 steps) was 42%.

In the case of `[2H]C([2H])(CCOc1ccn(-c2ccc3c(n2)N2C[C@@H](CCCNc4cccc(n4)S(=O)(=O)NC3=O)CC2(C)C)n1)C1(C(F)(F)F)CC1` [Compound 269, (14S)-12,12-Dimethyl-8-(3-{3-[1-(trifluoromethyl)cyclopropyl]-3,3-dideuterio-propoxy}-1H-pyrazol-1-yl)-2λ^6-thia-3,9,11,18,23-pentaazatetracyclo[17.3.1.111,14.05,10]tetracosa-1(22),5(10),6,8,19(23),20-hexaene-2,2,4-trione], the pEC50 [1] was over 6.00, the “Max. Activity” value [1] was “+++ (+++ is >60%)” and the ring closure, isolated yield ([2]; from [2H]C([2H])(CCOc1ccn(-c2ccc(C(=O)NS(=O)(=O)c3cccc(NCCC[C@@H]4CN(C(=O)OC(C)(C)C)C(C)(C)C4)n3)c(Cl)n2)n1)C1(C(F)(F)F)CC1, 15-membered ring, TFA/DCM, then K2CO3/3A MS, DMSO, 30.5 mM, 150.0 °C, 2 steps) was 24%.
